A short description of data set [1]: Acute toxicity (LD50, mouse, oral). Particulars: in vivo. From the text: The acute toxicity values [LD50 (mouse, oral)] for the following compounds, for example, were over 5 g/kg: […]
Data set [2] has as its system Serratia marcescens ES-75. As to the kind of experiment: Minimal inhibitory concentration (MIC), standard agar dilution method. It counts as cell-based. Particulars: ES75, Mueller Hinton agar, 37° C., 18 hours, Examples 1, 2, 4, 5, 6, 8 and 22 as sodium salts, others as free carboxylic acids. How it is done:
(§1) The compounds obtained in these examples were tested for their antibacterial activities in vitro. Minimal inhibitory concentration (MIC) was determined by the standard agar dilution method of the Japan Society of Chemotherapy. Compounds were dissolved in appropriate solvents (sterilized water for sodium salts and acetone-water [1:1] for free acids) and serial two-fold dilutions were made. Sodium salt of Cefazolin was chosen as the control compound. One-ml aliquots of each dilution were mixed with 9 ml of Mueller Hinton agar in petri-dishes to make agar plates containing the compound at serially diluted concentrations. After agar hardened, plates were put in an incubator at 37° C. for 1.5-2 hours with the lids slightly open to evaporate acetone off the plates. Test organisms were grown for 18 hours at 37° C. in Trypticase Soy broth and diluted in saline to approximately 10^6 colony forming units per ml. A loopful of each cell suspension was applied on the agar plate mentioned above and the plates were incubated for 18 hours at 37° C. before MIC was determined. MIC values of the compounds of Examples 1, 2, 4, 5, 6, 8 and 22 were determined as their sodium salts and those of other compounds as free carboxylic acids.

Data set [3] deals with Staphylococcus aureus 209-P. The data set is described as above. It counts as cell-based. As to conditions: Mueller Hinton agar, 37° C., 18 hours, Examples 1, 2, 4, 5, 6, 8 and 22 as sodium salts, others as free carboxylic acids. How it is done:
as §1

Data set [4] has as its system Klebsiella pneumoniae EK-6. The data set is described as above. As to conditions: EK6, Mueller Hinton agar, 37° C., 18 hours, Examples 1, 2, 4, 5, 6, 8 and 22 as sodium salts, others as free carboxylic acids. The data set is classed as cell-based. How it is done: as §1
The subject of the next data set is Proteus morganii EP-14. The description is as above. Particulars: Morganella morganii, EP14; Mueller Hinton agar, 37° C., 18 hours; Examples 1, 2, 4, 5, 6, 8 and 22 as sodium salts, others as free carboxylic acids. The data set is classed as cell-based. The procedure:
as §1

A further data set deals with Escherichia coli NIHJ. The description is as above. It counts as cell-based. Particulars: Mueller Hinton agar, 37° C., 18 hours, Examples 1, 2, 4, 5, 6, 8 and 22 as sodium salts, others as free carboxylic acids. How it is done: as §1
The test system of data set [5] is Pseudomonas aeruginosa EP-172. The data set is described as above. It counts as cell-based. Particulars: EP172, Mueller Hinton agar, 37° C., 18 hours, Examples 1, 2, 4, 5, 6, 8 and 22 as sodium salts, others as free carboxylic acids. The procedure: as §1

Structures can show the parent of a compound that is named as a salt.

In general, LD50 refers to the dose expected to kill half of the subjects tested. Lower therefore signals a more toxic substance. Usually MIC stands for the lowest concentration that inhibits growth of the organism.

`Cn1nnnc1SCC1=C(C(=O)O)N2C(=O)[C@@H](NC(=O)[C@H](NC(=O)c3coc4cc(O)c(O)cc4c3=O)c3ccccc3)[C@H]2SC1` [Example 1, Sodium salt of 7β-[D-2-(6,7-dihydroxychromone-3-carboxamido)-2-phenylacetamido]-3-[(1-methyltetrazol-5-yl)-thiomethyl]-3-cephem-4-carboxylic acid] came in with an LD50 in data set [1] of over 5000 mg/kg. The MIC is at most 0.1 µg/mL in data set [2]; 1.56 µg/mL in data set [3]; at most 0.1 µg/mL in data set [4]; 0.4 µg/mL in the data set with Proteus morganii EP-14; 0.4 µg/mL with Escherichia coli NIHJ; 0.8 µg/mL in data set [5].
Take `Cc1nnc(SCC2=C(C(=O)O)N3C(=O)[C@@H](NC(=O)[C@H](NC(=O)c4coc5cc(O)c(O)cc5c4=O)c4ccc(O)cc4)[C@H]3SC2)s1` [Example 4, Sodium salt of 7β-[D-2-(6,7-dihydroxychromone-3-carboxamido)-2-(4-hydroxyphenyl)acetamido]-3-[(5-methyl-1,3,4-thiadiazol-2-yl)thiomethyl]-3-cephem-4-carboxylicacid]: in data set [1], the LD50 is over 5000 mg/kg. Also, the MIC in data set [2] is at most 0.1 µg/mL; in data set [3], 1.56 µg/mL; in data set [4], at most 0.1 µg/mL; in the data set with Proteus morganii EP-14 it was 1.56 µg/mL; with Escherichia coli NIHJ, 0.8 µg/mL; in data set [5] it was 1.56 µg/mL.
As to `CN(C)CCn1nnnc1SCC1=C(C(=O)O)N2C(=O)[C@@H](NC(=O)[C@H](NC(=O)c3coc4cc(O)c(O)cc4c3=O)c3ccc(O)cc3)[C@H]2SC1` [Example 21, 7β-[D-2-(6,7-Dihydroxychromone-3-carboxamido)-2-(4-hydroxyphenyl)acetamido]-3-{[1-(2-dimethylaminoethyl)tetrazol-5-yl]-thiomethyl}-3-cephem-4-carboxylic acid], the MIC is at most 0.1 µg/mL in data set [2]; 1.56 µg/mL in data set [3]; at most 0.1 µg/mL in data set [4]; 12.5 µg/mL in the data set with Proteus morganii EP-14; 0.4 µg/mL with Escherichia coli NIHJ; 0.8 µg/mL in data set [5].
For the compound `O=C(O)C1=C(CSc2nnc[nH]2)CS[C@@H]2[C@H](NC(=O)[C@H](NC(=O)c3coc4cc(O)c(O)cc4c3=O)c3ccc(O)cc3)C(=O)N12` [Example 22], the MIC is 0.4 µg/mL in data set [2]; 3.13 µg/mL in data set [3]; at most 0.1 µg/mL in data set [4]; 50 µg/mL in the data set on Proteus morganii EP-14; 1.56 µg/mL in the data set on Escherichia coli NIHJ; 1.56 µg/mL in data set [5].
Regarding `O=C(O)Cn1nnnc1SCC1=C(C(=O)O)N2C(=O)[C@@H](NC(=O)[C@H](NC(=O)c3coc4cc(O)c(O)cc4c3=O)c3ccc(O)cc3)[C@H]2SC1` [Example 23], the MIC is at most 0.1 µg/mL in data set [2]; 3.13 µg/mL in data set [3]; at most 0.1 µg/mL in data set [4]; 12.5 µg/mL with Proteus morganii EP-14; 0.4 µg/mL with Escherichia coli NIHJ; 0.8 µg/mL in data set [5].
Turning to `O=C(O)C1=C(CSc2ccccn2)CS[C@@H]2[C@H](NC(=O)[C@H](NC(=O)c3coc4cc(O)c(O)cc4c3=O)c3ccc(O)cc3)C(=O)N12` [Example 24, 7β-[D-2-(6,7-Dihydroxychromone-3-carboxamido)-2-(4-hydroxyphenyl)acetamido]-3-(2-pyridylthiomethyl)-3-cephem-4-carboxylic acid], the MIC in data set [2] is at most 0.1 µg/mL; in data set [3] it was 0.8 µg/mL; in data set [4], at most 0.1 µg/mL; in the data set with Proteus morganii EP-14, 25 µg/mL; in the data set with Escherichia coli NIHJ, 0.4 µg/mL; in data set [5] it was 0.8 µg/mL.
`O=C(O)C1=C(CSc2cccc[n+]2[O-])CS[C@@H]2[C@H](NC(=O)[C@H](NC(=O)c3coc4cc(O)c(O)cc4c3=O)c3ccc(O)cc3)C(=O)N12` [Example 25, 7β-[D-2-(6,7-Dihydroxychromone-3-carboxamido)-2-(4-hydroxyphenyl)acetamido]-3-[2-(pyridyl-1-oxido)thiomethyl]-3-cephem-4-carboxylic acid]: the MIC is 0.2 µg/mL in data set [2]; 1.56 µg/mL in data set [3]; at most 0.1 µg/mL in data set [4]; 25 µg/mL in the data set with Proteus morganii EP-14; 0.8 µg/mL in the data set with Escherichia coli NIHJ; 0.8 µg/mL in data set [5].
Consider `O=C(O)C1=C(CSc2ncccn2)CS[C@@H]2[C@H](NC(=O)[C@H](NC(=O)c3coc4cc(O)c(O)cc4c3=O)c3ccc(O)cc3)C(=O)N12` [Example 26, 7β-[D-2-(6,7-Dihydroxychromone-3-carboxamido)-2-(4-hydroxyphenyl)acetamido]-3-(2-pyrimidinylthiomethyl)-3-cephem-4-carboxylic acid], for which the MIC in data set [2] is 0.2 µg/mL; in data set [3], 0.8 µg/mL; in data set [4] it was at most 0.1 µg/mL; in the data set on Proteus morganii EP-14, 50 µg/mL; with Escherichia coli NIHJ, 0.8 µg/mL; in data set [5] it was 1.56 µg/mL.
For the compound `Cc1nnc(SCC2=C(C(=O)O)N3C(=O)[C@@H](NC(=O)[C@H](NC(=O)c4coc5cc(O)c(O)cc5c4=O)c4ccc(O)cc4)[C@H]3SC2)o1` [Example 27, 7β-[D-2-(6,7-Dihydroxychromone-3-carboxamido)-2-(4-hydroxyphenyl)acetoamido]-3-[(5-methyl-1,3,4-oxadiazol-2-yl)thiomethyl]-3-cephem-4-carboxylic acid], the minimal inhibitory concentration (MIC) is 0.2 µg/mL in data set [2]; 0.8 µg/mL in data set [3]; at most 0.1 µg/mL in data set [4]; 50 µg/mL in the data set on Proteus morganii EP-14; 0.4 µg/mL in the data set on Escherichia coli NIHJ; 1.56 µg/mL in data set [5].
For `Cn1nnnc1SCC1=C(C(=O)O)N2C(=O)[C@@H](NC(=O)[C@H](NC(=O)c3coc4c(O)c(O)c(O)cc4c3=O)c3ccc(O)cc3)[C@H]2SC1` [Example 28, 7β-[D-2-(6,7,8-Trihydroxychromone-3-carboxamido)-2-(4-hydroxyphenyl)acetamido]-3-[(1-methyltetrazol-5-yl)thiomethyl]-3-cephem-4-carboxylic acid], the MIC in data set [2] was 0.8 µg/mL; in data set [3], 3.13 µg/mL; in data set [4] it was at most 0.1 µg/mL; in the data set on Proteus morganii EP-14, 50 µg/mL; in the data set on Escherichia coli NIHJ it was 3.13 µg/mL; in data set [5], 0.4 µg/mL.
For `CC(=O)Oc1cc2c(=O)c(C(=O)N[C@@H](C(=O)N[C@@H]3C(=O)N4C(C(=O)O)=C(CSc5nnnn5C)CS[C@H]34)c3ccc(O)cc3)coc2c(OC(C)=O)c1OC(C)=O` [Example 29, 7β-[D-2-(6,7,8-Triacetoxychromone-3-carboxamido)-2-(4-hydroxyphenyl)acetamido]-3-[(1-methyltetrazol-5-yl)thiomethyl]-3-cephem-4-carboxylic acid], the MIC in data set [2] was 0.4 µg/mL; in data set [3], 1.56 µg/mL; in data set [4], at most 0.1 µg/mL; with Proteus morganii EP-14 it was 12.5 µg/mL; in the data set with Escherichia coli NIHJ it was 1.56 µg/mL; in data set [5], 0.4 µg/mL.
`O=C(O)Cn1nnnc1SCC1=C(C(=O)O)N2C(=O)[C@@H](NC(=O)[C@H](NC(=O)c3coc4c(O)c(O)c(O)cc4c3=O)c3ccc(O)cc3)[C@H]2SC1` [Example 30, 7β-[D-2-(6,7,8-Trihydroxychromone-3-carboxamido)-2-(4-hydroxyphenyl)acetamido]-3-[(1-carboxymethyltetrazol-5-yl)thiomethyl]-3-cephem-4-carboxylic acid]: the MIC in data set [2] is 0.8 µg/mL; in data set [3], 12.5 µg/mL; in data set [4], at most 0.1 µg/mL; in the data set on Proteus morganii EP-14, 50 µg/mL; in the data set on Escherichia coli NIHJ, 0.8 µg/mL; in data set [5], 0.8 µg/mL.
With `CC(=O)Oc1cc2c(=O)c(C(=O)N[C@@H](C(=O)N[C@@H]3C(=O)N4C(C(=O)O)=C(CSc5nnnn5CC(=O)O)CS[C@H]34)c3ccc(O)cc3)coc2c(OC(C)=O)c1OC(C)=O` [Example 31, 7β-[D-2-(6,7,8-Triacetoxychromone-3-carboxamido)-2-(4-hydroxyphenyl)acetamido]-3-[(1-carboxymethyltetrazol-5-yl)thiomethyl]-3-cephem-4-carboxylicacid], the MIC was 0.8 µg/mL in data set [2]; 12.5 µg/mL in data set [3]; at most 0.1 µg/mL in data set [4]; 25 µg/mL in the data set with Proteus morganii EP-14; 0.8 µg/mL in the data set with Escherichia coli NIHJ; 0.8 µg/mL in data set [5].
Take `Cc1nnc(SCC2=C(C(=O)O)N3C(=O)[C@@H](NC(=O)Cn4cnnn4)[C@H]3SC2)s1` [Sodium salt of Cefazolin, reference compound]: the MIC was over 100 µg/mL in data set [2]; 0.4 µg/mL in data set [3]; 1.56 µg/mL in data set [4]; over 100 µg/mL in the data set with Proteus morganii EP-14; 1.56 µg/mL in the data set on Escherichia coli NIHJ; over 100 µg/mL in data set [5].
